Measurements: patent EP0598011B1, “ECDYSTEROID DEPENDENT REGULATION OF GENES IN MAMMALIAN CELLS” (GENENTECH, INC., priority 1991, dated 1993)

Experiments:
VGEc = target: T1, VGEc (Drosophila melanogaster, UniProt P34021); test: Induction of GRE reporter G4M-77CO by chimeric receptor VGEc in 293 cells; type: cell-based; details: normalized to hGH, SD in parentheses
T1 construct: expressed in transfected cells; host or cells: 293 cells
T1 sequence (P34021 329-878): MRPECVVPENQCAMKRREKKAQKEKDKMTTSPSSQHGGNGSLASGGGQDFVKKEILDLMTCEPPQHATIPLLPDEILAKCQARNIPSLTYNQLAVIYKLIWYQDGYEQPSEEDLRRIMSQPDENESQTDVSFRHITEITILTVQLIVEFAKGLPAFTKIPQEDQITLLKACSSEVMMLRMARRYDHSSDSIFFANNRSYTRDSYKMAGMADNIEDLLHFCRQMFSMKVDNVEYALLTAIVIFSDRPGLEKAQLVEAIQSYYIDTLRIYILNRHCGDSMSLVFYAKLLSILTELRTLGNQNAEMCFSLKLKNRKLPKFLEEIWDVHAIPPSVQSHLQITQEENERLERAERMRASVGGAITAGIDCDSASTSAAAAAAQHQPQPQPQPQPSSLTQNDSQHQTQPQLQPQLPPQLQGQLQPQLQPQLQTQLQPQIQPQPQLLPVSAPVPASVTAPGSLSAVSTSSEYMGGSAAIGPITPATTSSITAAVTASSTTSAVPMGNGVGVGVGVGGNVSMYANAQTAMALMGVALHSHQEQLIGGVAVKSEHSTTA
Description: Finally, I determined if the activity of DHR23α fusion proteins could be further enhanced by inclusion of a potent viral transactivation domain. I constructed VGEc and VLxEc fusion genes by replacing a portion of the GR N-terminal activation domain in GGEc and GLxEc, respectively, with the herpes virus VP16 acidic activation domain (I. Sadowski et al., […]. 335, 563 [1988]; D. J. Cousens, R. Greaves, C. R. Coding, and P. O'Hare, EMBO J. 8, 2337 [1989]) (Fig. 4A). In transfected cells, these proteins accumulated to similar levels as derivatives lacking the VP16 activation domain (Fig. 4B). Both VGEc and VLxEc acted in an ecdysteroid-dependent fashion to induce activity of the appropriate reporter gene (Tables 1 and 2). However, the activity of VGEc and VLxEc was 5 and 10 fold greater than GGEc and GLxEc, respectively (M..A. Labow, S.B. Baim, T. Shenk, and A. J. Levine, Mol. and Cell. Biol. 10, 3343 [1990]). Thus, the DHR23α ligand-binding domain can be used to regulate the activities of viral, mammalian and bacterial DNA-binding or transactivation domains.

G"E"Ec = target: T2, G"E"Ec (UniProt P06536+P34021, G458E/S459G); test: Induction of ERE reporter E4M-77CO by chimeric receptor G"E"Ec; type: cell-based; details: cells incubated 48 hrs
T2 construct: expressed in transfected cells
T2 sequence (P19793 whole entry): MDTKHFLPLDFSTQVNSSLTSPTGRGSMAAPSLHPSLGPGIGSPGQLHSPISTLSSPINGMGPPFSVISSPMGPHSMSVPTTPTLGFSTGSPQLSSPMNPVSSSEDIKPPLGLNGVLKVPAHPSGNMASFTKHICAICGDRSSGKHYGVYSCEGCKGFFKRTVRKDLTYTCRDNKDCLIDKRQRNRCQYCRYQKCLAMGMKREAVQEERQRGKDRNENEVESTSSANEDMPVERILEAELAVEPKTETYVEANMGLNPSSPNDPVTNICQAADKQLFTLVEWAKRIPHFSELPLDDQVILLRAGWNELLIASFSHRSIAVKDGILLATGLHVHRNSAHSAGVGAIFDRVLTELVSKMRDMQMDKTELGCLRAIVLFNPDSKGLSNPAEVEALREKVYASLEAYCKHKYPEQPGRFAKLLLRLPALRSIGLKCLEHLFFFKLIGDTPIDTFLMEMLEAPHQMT
T2 sequence (P06536+P34021 fused P06536:G458E/P06536:S459G): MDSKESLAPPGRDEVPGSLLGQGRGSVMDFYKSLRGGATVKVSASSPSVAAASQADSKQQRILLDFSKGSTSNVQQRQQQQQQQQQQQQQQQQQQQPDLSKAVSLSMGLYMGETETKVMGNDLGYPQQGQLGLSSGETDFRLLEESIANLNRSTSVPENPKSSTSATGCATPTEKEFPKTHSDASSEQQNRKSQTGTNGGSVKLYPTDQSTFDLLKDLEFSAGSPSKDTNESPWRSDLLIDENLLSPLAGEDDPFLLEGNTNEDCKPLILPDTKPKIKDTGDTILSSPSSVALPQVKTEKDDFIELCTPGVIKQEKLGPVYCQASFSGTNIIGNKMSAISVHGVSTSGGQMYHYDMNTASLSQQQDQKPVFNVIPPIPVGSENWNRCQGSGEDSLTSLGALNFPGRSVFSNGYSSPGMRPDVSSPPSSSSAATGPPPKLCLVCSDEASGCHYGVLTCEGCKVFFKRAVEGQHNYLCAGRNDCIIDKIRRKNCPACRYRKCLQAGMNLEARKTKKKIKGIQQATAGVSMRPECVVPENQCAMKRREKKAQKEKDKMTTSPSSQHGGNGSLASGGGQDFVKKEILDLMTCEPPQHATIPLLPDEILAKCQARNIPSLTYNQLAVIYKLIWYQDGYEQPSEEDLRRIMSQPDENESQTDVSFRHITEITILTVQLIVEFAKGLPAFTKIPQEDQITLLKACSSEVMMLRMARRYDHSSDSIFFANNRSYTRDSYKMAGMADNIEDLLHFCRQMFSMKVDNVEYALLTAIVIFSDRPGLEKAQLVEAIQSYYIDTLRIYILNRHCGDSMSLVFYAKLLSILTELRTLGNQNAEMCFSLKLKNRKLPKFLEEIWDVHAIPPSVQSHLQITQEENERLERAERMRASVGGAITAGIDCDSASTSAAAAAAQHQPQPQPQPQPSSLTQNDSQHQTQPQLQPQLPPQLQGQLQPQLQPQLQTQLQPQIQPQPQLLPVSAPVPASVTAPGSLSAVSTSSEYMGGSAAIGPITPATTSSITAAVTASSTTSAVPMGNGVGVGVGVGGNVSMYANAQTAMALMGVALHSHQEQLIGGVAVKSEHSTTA
Method: Figure. 6. Induction of […] (EREs) by chimeric receptors. Cells were transfected with expression plasmids encoding eiher DHR23α (EcEcEc), G"E"G or G"E"Ec and E4M-77CO, that contains 4 EREs fused to the MTV promoter. Cells were incubated for 48 hrs with or wihout (-) or with muristerone A (M) or dexamethasone (D).
I then determined if a DHR23 fusion protein could regulate genes normally responsive to estrogens.
Cells were transfected with expression plasmids encoding either DHR23α (EcEcEc), G"E"G or G"E"Ec and E4M-77CO, that contains 4 EREs fused to the MTV promoter. Cells were incubated for 48 hrs with or without (-) or with muristerone A (M) or dexamethasone (D). Reporter gene activity was determined as described above for Figure 2.

GXG = target: T3, GXG (Rattus norvegicus, UniProt P06536); test: Lex-operator reporter X4C-33CO with GXG; type: cell-based; details: receptor GXG, SD in parentheses
T3 construct: expressed in transfected cells
T3 sequence (P06536 528-795): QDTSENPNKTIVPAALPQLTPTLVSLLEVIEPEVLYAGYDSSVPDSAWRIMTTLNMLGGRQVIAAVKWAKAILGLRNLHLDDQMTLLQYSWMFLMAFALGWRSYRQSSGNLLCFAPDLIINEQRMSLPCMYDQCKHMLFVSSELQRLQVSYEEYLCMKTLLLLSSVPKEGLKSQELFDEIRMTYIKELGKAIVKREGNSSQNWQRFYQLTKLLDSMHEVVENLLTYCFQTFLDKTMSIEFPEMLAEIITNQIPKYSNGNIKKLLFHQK
Description: (§1) Such fusion constructs are expected to be useful in regulating the expression of exogenous genes introduced into transgenic mammals or mammalian cells. I next determined if the DHR23α ligand-binding domain could be used to regulate the activity of a DNA-binding domain not normally expressed in mammalian cells. I constructed the chimeric gene GLxEc by replacing the sequences coding for the GR DNA-binding domain in the GGEc fusion with those encoding the DNA-binding domain of the Escherichia coli LexA repressor (J. W. Little and S. A. Hill, Proc. Natl. Acad. Sci. U.S.A. 82, 2301 [1985]) (Fig. 4). A reporter gene, X4C-33CO was constructed that contains 4 copies of a 26-bp lex operator (R. Brent and M. Ptashne, Nature 312, 612 [1984]) at position -33 of the CMV promoter. GLxEc had no effect on the expression of a OC-33CO, a reporter gene lacking the lex operator (Fig. 6B).
(§2) Illustrated in Table 2 is the transcriptional activation by receptor-LexA fusion proteins. Effector plasmids encoding the indicated receptor proteins were transfected with a reporter gene either containing (X4C-33CO) or lacking (OC-33CO) lex-operators. […] The cells were incubated either with (+) or without (-) muristerone A. The fold induction was determined as described previously; the standard deviations are shown in parenthesis.

GXEc [1] = target: T4, GXEc (Drosophila melanogaster, UniProt P34021); test: Lex-operator reporter X4C-33CO with GXEc; type: cell-based; details: receptor GXEc, SD in parentheses
T4 construct: expressed in transfected cells
T4 sequence (P34021 329-878): T1 sequence (P34021 329-878)
Description: as §1, §2

GXEc [2] = target: T4, GXEc; test: Reporter OC-33CO lacking lex-operators with GXEc; type: cell-based; details: receptor GXEc, SD in parentheses
Description: as §1, §2

insect = details: in vivo; cited from earlier work
EcEcEc = EcEcEc (Drosophila melanogaster, UniProt P34021); test: Lex-operator reporter X4C-33CO with EcEcEc (DHR23α); type: cell-based; set-up: To isolate the full-length DHR23α clones; expressed in transfected cells; details: receptor EcEcEc, SD in parentheses
EcEcEc, sequence (P19793 whole entry): as the sequence (P19793 whole entry) above
EcEcEc, sequence (P34021 whole entry): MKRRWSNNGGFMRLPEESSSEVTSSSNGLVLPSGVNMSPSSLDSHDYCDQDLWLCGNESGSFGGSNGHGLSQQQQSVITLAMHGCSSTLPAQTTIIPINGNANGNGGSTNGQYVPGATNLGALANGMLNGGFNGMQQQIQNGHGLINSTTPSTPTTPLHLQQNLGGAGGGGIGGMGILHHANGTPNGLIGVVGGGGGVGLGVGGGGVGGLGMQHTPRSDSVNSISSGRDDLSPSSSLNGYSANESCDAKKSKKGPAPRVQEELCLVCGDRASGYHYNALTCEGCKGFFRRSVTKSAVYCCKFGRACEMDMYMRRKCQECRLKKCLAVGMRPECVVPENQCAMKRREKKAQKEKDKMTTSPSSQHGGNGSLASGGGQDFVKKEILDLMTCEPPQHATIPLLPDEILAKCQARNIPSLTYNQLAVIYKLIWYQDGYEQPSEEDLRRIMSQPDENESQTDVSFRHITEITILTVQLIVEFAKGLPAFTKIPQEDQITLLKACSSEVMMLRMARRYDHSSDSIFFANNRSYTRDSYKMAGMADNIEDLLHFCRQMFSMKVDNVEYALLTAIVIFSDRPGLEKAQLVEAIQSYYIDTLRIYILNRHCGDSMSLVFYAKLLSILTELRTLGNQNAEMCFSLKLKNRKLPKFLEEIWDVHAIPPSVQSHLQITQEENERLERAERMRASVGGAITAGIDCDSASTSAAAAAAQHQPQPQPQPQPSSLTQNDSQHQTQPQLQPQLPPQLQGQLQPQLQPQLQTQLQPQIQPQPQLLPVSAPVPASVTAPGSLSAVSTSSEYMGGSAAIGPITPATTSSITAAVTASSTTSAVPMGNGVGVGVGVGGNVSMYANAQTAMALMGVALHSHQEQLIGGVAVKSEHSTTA
Description: as §1, §2

Which results are given for `CC(C)CCC(O)[C@](C)(O)[C@H]1CC[C@@]2(O)C3=CC(=O)C4(O)CC(O)C(O)C[C@]4(C)[C@H]3C(O)C[C@]12C` (stereo partly drawn) [muristerone A, 2,3,5,11,14,20,22-Heptahydroxy-7-cholesten-6-one]?
fold induction (VGEc): 3117 (240) fold; regulation of ERE containing reporter gene E4M-77CO (G"E"Ec): regulates the ERE containing reporter gene E4M-77CO in a muristerone-dependent fashion; fold induction (GXG): 1.1 (0.2) fold; fold induction (GXG; listed as muristerone): not induced; fold induction (GXEc [1]): 44.3 (8.3) fold; fold induction (GXEc [2]): 0.9 (0.3) fold; insect moulting activity (insect): high; fold induction (EcEcEc): 1.4 (0.1) fold; fold induction (EcEcEc; listed as muristerone): not induced
